In patent US20110166121A1 (LG LIFE SCIENCES LTD., priority 2008, published 2011):

Test system: Human platelet aggregation caused by ADP
Assay: Inhibition of ADP-induced platelet aggregation (Mimic-human PRP)
Assay type: cell-based
Details: 20 μM ADP, human platelet concentrate diluted with PPP, absorption at 595 nm
Summary of the method: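 Ki came from non-linear sigmoidal fits of inhibition, measured as the 3-min rise in absorbance at 595 nm after 20 μM ADP, relative to 0/20 μM ADP controls. Platelets (3–4×10^8/mL in PPP-diluted human PRP) were exposed to 0.01–30 μM compound for 20 min at room temperature beforehand.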

Compound	Ki [nM]
CCCc1cc2c(N3CCn4c(nnc4C(F)(F)F)C3)nc(N3CC[C@H](N(C)C(C)=O)C3)nc2s1 [Example 9-24, N-Methyl-N-{(S)-1-[6-propyl-4-(3-trifluoromethyl-5,6-dihydro-8H-[1,2,4]triazolo[4,3-a]pyrazin-7-yl)-thieno[2,3-d]pyrimidin-2-yl]-pyrrolidin-3-yl}-acetamide]	310
CCCc1cc2c(N3CCn4c(nnc4C(F)(F)F)C3)nc(OCCNC(=O)NC)nc2s1 [Example 9-25, 1-Methyl-3-{2-[6-propyl-4-(3-trifluoromethyl-5,6-dihydro-8H-[1,2,4]triazolo[4,3-a]pyrazin-7-yl)-thieno[2,3-d]pyrimidin-2-yloxy]-ethyl}-urea]	5.7
CCCc1cc2c(N3CCn4c(nnc4C(F)(F)F)C3)nc(OCCNC(=O)N3CCCC3)nc2s1 [Example 9-26, Pyrrolidine-1-carboxylic Acid {2-[6-propyl-4-(3-trifluoromethyl-5,6-dihydro-8H-[1,2,4]triazolo[4,3-a]pyrazin-7-yl)-thieno[2,3-d]pyrimidin-2-yloxy]-ethyl}-amide]	16
CCCc1cc2c(N3CCn4c(nnc4C(F)(F)F)C3)nc(OCCNC(N)=O)nc2s1 [Example 9-27, {2-[6-Propyl-4-(3-trifluoromethyl-5,6-dihydro-8H-[1,2,4]triazolo[4,3-a]pyrazin-7-yl)-thieno[2,3-d]pyrimidin-2-yloxy]-ethyl}-urea]	6.5
CCCc1cc2c(N3CCn4c(nnc4C(F)(F)F)C3)nc(N3CC(O)C(NC=O)C3)nc2s1 (centres unmarked) [Example 9-28, N-{4-Hydroxy-1-[6-propyl-4-(3-trifluoromethyl-5,6-dihydro-8H-[1,2,4]triazolo[4,3-a]pyrazin-7-yl)-thieno[2,3-d]pyrimidin-2-yl]-pyrrolidin-3-yl}-formamide]	0.16
CCCc1cc2c(N3CCn4c(nnc4C(F)(F)F)C3)nc(N3CC(Cl)C(NC(C)=O)C3)nc2s1 (centres unmarked) [Example 9-29, N-{4-Chloro-1-[6-propyl-4-(3-trifluoromethyl-5,6-dihydro-8H-[1,2,4]triazolo[4,3-a]pyrazin-7-yl)-thieno[2,3-d]pyrimidin-2-yl]-pyrrolidin-3-yl}-acetamide]	2.2
CCCc1cc2c(N3CCn4c(nnc4C(F)(F)F)C3)nc(N3CC4N=C(C)OC4C3)nc2s1 (centres unmarked) [Example 9-30, 7-[2-(2-Methyl-3a,4,6,6a-tetrahydro-pyrrolo[3,4-d]oxazol-5-yl)-6-propyl-thieno[2,3-d]pyrimidin-4-yl]-3-trifluoromethyl-5,6,7,8-tetrahydro-[1,2,4]triazolo[4,3-a]pyrazine]	0.3
CCCc1cc2c(N3CCn4c(nnc4C(F)(F)F)C3)nc(NCCNC=O)nc2s1 [Example 9-31, N-{2-[6-Propyl-4-(3-trifluoromethyl-5,6-dihydro-8H-[1,2,4]triazolo[4,3-a]pyrazin-7-yl)-thieno[2,3-d]pyrimidin-2-ylamino]-ethyl}-formamide]	87
CCCc1cc2c(N3CCn4c(nnc4C(F)(F)F)C3)nc(NCCNC(=O)OC)nc2s1 [Example 9-32, {2-[6-Propyl-4-(3-trifluoromethyl-5,6-dihydro-8H-[1,2,4]triazolo[4,3-a]pyrazin-7-yl)-thieno[2,3-d]pyrimidin-2-ylamino]-ethyl}-carbamic acid methyl ester]	29
CCCc1cc2c(N3CCn4c(nnc4C(F)(F)F)C3)nc(N3CCNC3=O)nc2s1 [Example 9-33, 1-[6-Propyl-4-(3-trifluoromethyl-5,6-dihydro-8H-[1,2,4]triazolo[4,3-a]pyrazin-7-yl)-thieno[2,3-d]pyrimidin-2-yl]-imidazolidin-2-one]	41
CCCc1cc2c(N3CCn4c(nnc4C(F)(F)F)C3)nc(N3CC4N=COC4C3)nc2s1 (centres unmarked) [Example 9-34, 7-[6-Propyl-2-(3a,4,6,6a-tetrahydro-pyrrolo[3,4-d]oxazol-5-yl)-thieno[2,3-d]pyrimidin-4-yl]-3-trifluoromethyl-5,6,7,8-tetrahydro-[1,2,4]triazolo[4,3-a]pyrazine]	15
CCCc1cc2c(N3CCn4c(nnc4C(F)(F)F)C3)nc(OC)nc2s1 [Example 9-35, 7-(2-Methoxy-6-propyl-thieno[2,3-d]pyrimidin-4-yl)-3-trifluoromethyl-5,6,7,8-tetrahydro-[1,2,4]triazolo[4,3-a]pyrazine]	220
CCCc1cc2c(N3CCn4c(nnc4C(F)(F)F)C3)nc(OCC)nc2s1 [Example 9-36, 7-(2-Ethoxy-6-propyl-thieno[2,3-d]pyrimidin-4-yl)-3-trifluoromethyl-5,6,7,8-tetrahydro-[1,2,4]triazolo[4,3-a]pyrazine]	170
CCCc1cc2c(N3CCn4c(nnc4C(F)(F)F)C3)nc(N=[N+]=[N-])nc2s1 [Example 9-37, 7-(2-Azido-6-propyl-thieno[2,3-d]pyrimidin-4-yl)-3-trifluoromethyl-5,6,7,8-tetrahydro-[1,2,4]triazolo[4,3-a]pyrazine]	200
CCCc1cc2c(N3CCn4c(nnc4C(F)(F)F)C3)nc(N)nc2s1 [Example 9-38, 6-Propyl-4-(3-trifluoromethyl-5,6-dihydro-8H-[1,2,4]triazolo[4,3-a]pyrazin-7-yl)-thieno[2,3-d]pyrimidin-2-ylamine]	49
CCCc1cc2c(N3CCn4c(nnc4C(F)(F)F)C3)nc(N(C)CCNC(C)=O)nc2s1 [Example 9-40, N-(2-{Methyl-[6-propyl-4-(3-trifluoromethyl-5,6-dihydro-8H-[1,2,4]triazolo[4,3-a]pyrazin-7-yl)-thieno[2,3-d]pyrimidin-2-yl]-amino}-ethyl)-acetamide]	22
CCCc1cc2c(N3CCn4c(nnc4C(F)(F)F)C3)nc(N(C)CCNC=O)nc2s1 [Example 9-41, N-(2-{Methyl-[6-propyl-4-(3-trifluoromethyl-5,6-dihydro-8H-[1,2,4]triazolo[4,3-a]pyrazin-7-yl)-thieno[2,3-d]pyrimidin-2-yl]-amino}-ethyl)-formamide]	37
CCCc1cc2c(N3CCn4c(nnc4C(F)(F)F)C3)nc(N(C)CCNC(=O)OC)nc2s1 [Example 9-42, (2-{Methyl-[6-propyl-4-(3-trifluoromethyl-5,6-dihydro-8H-[1,2,4]triazolo[4,3-a]pyrazin-7-yl)-thieno[2,3-d]pyrimidin-2-yl]-amino}-ethyl)-carbamic acid methyl ester]	27
CCCc1cc2c(N3CCn4c(nnc4C(F)(F)F)C3)nc(-n3cncn3)nc2s1 [Example 9-43, 7-(6-Propyl-2-[1,2,4]triazol-1-yl-thieno[2,3-d]pyrimidin-4-yl)-3-trifluoromethyl-5,6,7,8-tetrahydro-[1,2,4]triazolo[4,3-a]pyrazine]	330
CCCc1cc2c(N3CCn4c(nnc4C(F)(F)F)C3)nc(OCCn3cncn3)nc2s1 [Example 9-44, 7-[6-Propyl-2-(2-[1,2,4]triazol-1-yl-ethoxy)-thieno[2,3-d]pyrimidin-4-yl]-3-trifluoromethyl-5,6,7,8-tetrahydro-[1,2,4]triazolo[4,3-a]pyrazine]	9.8
CCCc1cc2c(N3CCn4c(nnc4C(F)(F)F)C3)nc(NCCc3c[nH]cn3)nc2s1 [Example 9-45, [2-(1H-Imidazol-4-yl)-ethyl]-[6-propyl-4-(3-trifluoromethyl-5,6-dihydro-8H-[1,2,4]triazolo[4,3-a]pyrazin-7-yl)-thieno[2,3-d]pyrimidin-2-yl]-amine]	38
CCCc1cc2c(N3CCn4c(nnc4C(F)(F)F)C3)nc(-n3cnc(CCN)c3)nc2s1 [Example 9-46, 2-{1-[6-Propyl-4-(3-trifluoromethyl-5,6-dihydro-8H-[1,2,4]triazolo[4,3-a]pyrazin-7-yl)-thieno[2,3-d]pyrimidin-2-yl]-1H-imidazol-4-yl}-ethylamine]	530
CCCc1cc2c(N3CCn4c(nnc4C(F)(F)F)C3)nc(-n3ccc([N+](=O)[O-])c3)nc2s1 [Example 9-47, 7-[2-(3-Nitro-pyrrole-1-yl)-6-propyl-thieno[2,3-d]pyrimidin-4-yl]-3-trifluoromethyl-5,6,7,8-tetrahydro-[1,2,4]triazolo[4,3-a]pyrazine]	3900
CCCc1cc2c(N3CCn4c(nnc4C(F)(F)F)C3)nc(N(CCO)c3cnccn3)nc2s1 [Example 9-50, 2-{[6-Propyl-4-(3-trifluoromethyl-5,6-dihydro-8H-[1,2,4]triazolo[4,3-a]pyrazin-7-yl)-thieno[2,3-d]pyrimidin-2-yl]-pyrazin-2-yl-amino}-ethanol]	230
CCCc1cc2c(N3CCn4c(nnc4C(F)(F)F)C3)nc(N3CC(=O)N(CCO)C3=O)nc2s1 [Example 9-51, 3-(2-Hydroxy-ethyl)-1-[6-propyl-4-(3-trifluoromethyl-5,6-dihydro-8H-[1,2,4]triazolo[4,3-a]pyrazin-7-yl)-thieno[2,3-d]pyrimidin-2-yl]-imidazolidine-2,4-dione]	190
CCCc1cc2c(N3CCn4c(nnc4C(F)(F)F)C3)nc(-n3ccc(N)n3)nc2s1 [Example 9-52, 1-[6-Propyl-4-(3-trifluoromethyl-5,6-dihydro-8H-[1,2,4]triazolo[4,3-a]pyrazin-7-yl)-thieno[2,3-d]pyrimidin-2-yl]-1H-pyrazol-3-ylamine]	16
CCCc1cc2c(N3CCn4c(nnc4C(F)(F)F)C3)nc(Nc3cc[nH]n3)nc2s1 [Example 9-53, [6-Propyl-4-(3-trifluoromethyl-5,6-dihydro-8H-[1,2,4]triazolo[4,3-a]pyrazin-7-yl)-thieno[2,3-d]pyrimidin-2-yl]-(1H-pyrazol-3-yl)-amine]	31
CCCc1cc2c(N3CCn4c(nnc4C(F)(F)F)C3)nc(-n3ccc(NC(C)=O)n3)nc2s1 [Example 9-54, N-{1-[6-Propyl-4-(3-trifluoromethyl-5,6-dihydro-8H-[1,2,4]triazolo[4,3-a]pyrazin-7-yl)-thieno[2,3-d]pyrimidin-2-yl]-1H-pyrazol-3-yl}-acetamide]	130
CCCc1cc2c(N3CCn4c(nnc4C(F)(F)F)C3)nc(-n3cc(C)cn3)nc2s1 [Example 9-55, 7-[2-(4-Methyl-pyrazol-1-yl)-6-propyl-thieno[2,3-d]pyrimidin-4-yl]-3-trifluoromethyl-5,6,7,8-tetrahydro-[1,2,4]triazolo[4,3-a]pyrazine]	340
